# According to publication PMC10518255, “A first-in-class pan-lysyl oxidase inhibitor impairs stromal remodeling and enhances gemcitabine response and survival in pancreatic cancer” (Nature Cancer, 2023):
# “And” between values parts separate entries of the source, which are not always exact repeats. Identical values can stand only once.
# How the values were obtained:
# KPC mouse model of PDAC = test: Quantification of liver metastases (H&E), KPC survival study (Fig. 4g); assay type: in vivo; conditions: for liver metastases/mm2: individual animals
# Protocol: Fig. 4 PXS-5505 administered in a KPC in vivo survival study. a, Schematic of the KPC in vivo survival study. Presence of a primary tumor in KPC mice was confirmed by two independent researchers (positive diagnosis) before commencement of daily treatment (Tx) on one of four treatment arms as follows: vehicle, 0.9% saline; Gem, twice-weekly gemcitabine (100 mg kg^−1 i.p.); PXS-5505, daily PXS-5505 at 20 mg kg^−1 i.p.; and PXS-5505 + Gem, daily PXS-5505 at 20 mg kg^−1 i.p. + twice-weekly gemcitabine (100 mg kg^−1 i.p.). b, Table of median survival (since diagnosis/commencement of treatment) across the four treatment groups (n = 30 biologically independent animals (vehicle), n = 31 biologically independent animals (Gem), n = 36 biologically independent animals (PXS-5505), n = 46 biologically independent animals (PXS-5505 + Gem)). c, Kaplan–Meier curves for overall survival across treatment arms (n = 30 biologically independent animals (vehicle), n = 31 biologically independent animals (Gem), n = 36 biologically independent animals (PXS-5505), n = 46 biologically independent animals (PXS-5505 + Gem)). P values determined by log-rank (Mantel–Cox) test. d, Representative maximum intensity projections of SHG multiphoton imaging for tumors from each treatment group (n = 1 FOV taken from one biologically independent animal per group) at end point (scale bars, 100 μm) and quantification of SHG peak signal intensity (n = 5 biologically independent animals per group and five FOV per animal). Data are mean ± s.d. […] Quantification of metastases (n = 18 biologically independent animals (vehicle), n = 18 biologically independent animals (Gem), n = 17 biologically independent animals (PXS-5505), n = 15 biologically independent animals (PXS-5505 + Gem)). Data are mean ± s.d.
# The 4-µm formalin-fixed paraffin-embedded (FFPE) sections were cut and stained for H&E following standard histopathology methodologies or stained for CK19 using the Bond RX H2(30) protocol detailed above. […] The total number of liver metastases were quantified and determined using QuPath[57].
# TKCC10 human PDX tumors = test: TKCC10 human model survival study (Extended Data Fig. 5k); assay type: in vivo, mouse
# Protocol: Subcutaneous PDX studies were performed by implanting early passage PDX pieces (~4 mm^3) or TKCC10 CCs (1.5 × 10^6 cells per mouse in 100 μl PBS/Matrigel 1:1) into female (PDX) or male (TKCC10) 8-week-old immunocompromised nude Balb/c-Fox1nuAusb mice subcutaneously on the left flank. For the duration of the study, mice were kept in conventional caging with environmental enrichment, access to standard chow, water ad libitum and 12-h light–dark cycle at ambient temperature and humidity. […] Tumor size was monitored every second day by calipers. Tumor volume was calculated using the formula (length × width^2)/2. […]
# Extended Data Fig. 5 PXS-5505 in combination with gemcitabine in vivo. a. […] Signal is defined as the enzyme activity in the aorta, while noise is measured in the presence of a high concentration (300 µM) BAPN to abolish any lysyl oxidase family activity. […] FITC-dextran (molecular weight: 10 kDa) signal quantification from KPC tumor end point from each treatment group (vehicle n = 3 biologically independent animals, PXS-5505 n = 5 biologically independent animals, Gem n = 5 biologically independent animals, PXS-5505 + Gem n = 5 biologically independent animals). […] P-values determined by Welchs t-test. […] Quantification of red birefringent (mature) collagen fibers from human PDXs at end point after 3 cycles of treatment, treated as indicated. […]
# APMA human PDX tumors = test: APMA human PDX model, tumor volumes at end point (Extended Data Fig. 5g); assay type: in vivo, mouse; conditions: Extended Data 5G; second human PDX model after 3 cycles of treatment; individual animals
# Protocol: Subcutaneous PDX studies were performed by implanting early passage PDX pieces (~4 mm^3) or TKCC10 CCs (1.5 × 10^6 cells per mouse in 100 μl PBS/Matrigel 1:1) into female (PDX) or male (TKCC10) 8-week-old immunocompromised nude Balb/c-Fox1nuAusb mice subcutaneously on the left flank. For the duration of the study, mice were kept in conventional caging with environmental enrichment, access to standard chow, water ad libitum and 12-h light–dark cycle at ambient temperature and humidity. Treatment began when tumors reached 150 mm^3, where each mouse was randomized into a treatment group and administered gemcitabine HCl (100 mg kg^−1 in saline) (Jomar Life Research) or vehicle control (0.9% saline) by i.p. injection twice weekly on day 2 and 4 of the treatment cycle until an ethical end point was reached. These included maximal tumor mass ≥10% of body weight, weight loss ≥20% from maximum body weight or tumor interfering with mobility and affecting access to food and water. Animals with non-tumor-related complications that led to a premature end point were censored. PXS-5505 (20 mg kg^−1 in saline) or vehicle (0.9% saline) was administered daily by i.p. injection. Tumor size was monitored every second day by calipers. Tumor volume was calculated using the formula (length × width^2)/2. At day 39, mice were killed via CO2 and cervical dislocation and tumors were collected and processed. […]
SMILES,liver metastases/mm2 (KPC mouse model of PDAC),median survival (time under treatment after tumor reached 50 mm^3) (TKCC10 human PDX tumors) [days],Tumour volumes at endpoint (APMA human PDX tumors),metastatic foci / metastatic burden in the liver (KPC mouse model of PDAC; compared to vehicle)
"Cl.Cl.NC/C=C(\F)CS(=O)(=O)c1cccc2cccnc12.O [PXS-5505, (Z)-3-fluoro-4-(quinolin-8-ylsulfonyl)but-2-en-1-amine dihydrochloride monohydrate]",0.001562 /mm2 and 0.001978 /mm2 and 0.00288 /mm2 and 0.001774 /mm2 and 0.002087 /mm2 and 0.001249 /mm2 and 0.00165 /mm2 and 0.00324 /mm2 and 0.001709 /mm2 and 0.002256 /mm2 and 0.001847 /mm2 and 0.001474 /mm2 and 0.001116 /mm2 and 0.0009543 /mm2 and 0.001461 /mm2 and 0.00148 /mm2 and 0.001125 /mm2,16,111.838 mm3 and 144.188 mm3 and 186.048 mm3 and 277.687 mm3 and 285.67 mm3 and 63.9218 mm3 and 265.041 mm3 and 180.58 mm3 and 65.1463 mm3,–
"Nc1ccn([C@@H]2O[C@H](CO)[C@@H](O)C2(F)F)c(=O)n1 [Gem, gemcitabine]",0.000998 /mm2 and 0.00153 /mm2 and 0.000533 /mm2 and 0.002596 /mm2 and 0.002539 /mm2 and 0.002266 /mm2 and 0.001775 /mm2 and 0.001805 /mm2 and 0.001681 /mm2 and 0.002472 /mm2 and 0.001465 /mm2 and 0.003681 /mm2 and 0.001157 /mm2 and 0.004279 /mm2 and 0.0007747 /mm2 and 0.000926 /mm2 and 0.002131 /mm2 and 0.001372 /mm2,29,145.448 mm3 and 9.626 mm3 and 12.4718 mm3 and 45.315 mm3 and 3.952 mm3 and 50.8335 mm3 and 16.8359 mm3 and 29.7673 mm3 and 51.7185 mm3 and 16.7442 mm3,did not reduce the number of metastatic foci
